# Legend:
# Format in all cases: in vivo
# transplanted rice plant = test: Test Example 1: effect on crop, application before weed generation in submerged conditions (symbol a); settings: application herbicide amount 320 g/ha
# Summary of the method: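 Alluvial soil pots flooded to 4 cm water, sown with Echinochloa oryzacola, Scirpus juncoides and Monochoria vaginalis, then transplanted with 2.5 leaf stage rice seedlings; pre-emergence application. Greenhouse 25° C. to 30° C.; scored 0–5 by herbicidal ratio 3 weeks after application.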
# [1] = test system: Echinochloa crus-galli var. crus-galli; test: Test Example 3: herbicidal effect by foliage application, Wagner pot (symbol H); settings: application herbicide amount 320 g/ha
# Summary of the method: (§1)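 Scoring took place 3 weeks after application, using fixed criteria. Plants had been raised from seed for 14 days at 25 to 30 °C in submerged alluvial soil before a diluted emulsion of the test compound was sprayed uniformly on the leaves.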
# Leptochloa chinensis = test: Test Example 3: herbicidal effect by foliage application, Wagner pot (symbol D); settings: application herbicide amount 320 g/ha
# Summary of the method: as §1
# [2] = test system: directly sowed rice plant; test: Test Example 3: effect on crop by foliage application, Wagner pot (symbol b); settings: application herbicide amount 320 g/ha
# Summary of the method: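 Wagner pot (1/10000 are), alluvial soil, submerged 0.1–0.5 cm; sown E. crus-galli var. crus-galli, L. chinensis, C. difformis, rice; greenhouse 25–30 °C.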
# Digitaria ciliaris = test: Test Example 4: herbicidal effect by soil treatment (symbol F); settings: application herbicide amount 320 g/ha
# Summary of the method: (§2)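 Seeds were sown in sterilized diluvial soil, covered with about 1.5 cm of soil, and the soil surface was sprayed with a water-diluted emulsion of the compound at a predetermined rate. Plants grew in a greenhouse at 25° C. to 30° C.; effects were scored visually 3 weeks after application.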
# Setaria viridis [3] = test: Test Example 4: herbicidal effect by soil treatment (symbol G); settings: application herbicide amount 320 g/ha
# Summary of the method: as §2
# Lolium multiflorum Lam. = test: Test Example 4: herbicidal effect by soil treatment (symbol K); settings: application herbicide amount 320 g/ha
# Summary of the method: as §2
# Apera spica-venti [4] = test: Test Example 4: herbicidal effect by soil treatment (symbol L); settings: application herbicide amount 320 g/ha
# Summary of the method: as §2
# Abutilon theophrasti [5] = test: Test Example 4: herbicidal effect by soil treatment (symbol M); settings: application herbicide amount 320 g/ha
# Summary of the method: as §2
# Amaranthus retroflexus = test: Test Example 4: herbicidal effect by soil treatment (symbol N); settings: application herbicide amount 320 g/ha
# Summary of the method: as §2
# Stellaria media [6] = test: Test Example 4: herbicidal effect by soil treatment (symbol P); settings: application herbicide amount 320 g/ha
# Summary of the method: as §2
# Galium spurium = test: Test Example 4: herbicidal effect by soil treatment (symbol Q); settings: application herbicide amount 320 g/ha
# Summary of the method: as §2
# Veronica persica = test: Test Example 4: herbicidal effect by soil treatment (symbol R); settings: application herbicide amount 320 g/ha
# Summary of the method: as §2
# Setaria viridis [7] = test: Test Example 5: herbicidal effect by foliage application, plastic box (symbol G); settings: 320 g/ha, 3 weeks after application
# Summary of the method: (§3)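 Visual herbicidal score, taken three weeks post-application, of seedlings sprayed on the foliage with water-diluted emulsion at a predetermined amount; plants were 14 days old, greenhouse-raised at 25° C. to 30° C.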
# [8] = test system: Echinochloa crus-galli var. crus-galli; test: Test Example 5: herbicidal effect by foliage application, plastic box (symbol H); settings: 320 g/ha, 3 weeks after application
# Summary of the method: as §3
# Avena fatua = test: Test Example 5: herbicidal effect by foliage application, plastic box (symbol I); settings: 320 g/ha, 3 weeks after application
# Summary of the method: as §3
# Apera spica-venti [9] = test: Test Example 5: herbicidal effect by foliage application, plastic box (symbol L); settings: 320 g/ha, 3 weeks after application
# Summary of the method: as §3
# Abutilon theophrasti [10] = test: Test Example 5: herbicidal effect by foliage application, plastic box (symbol M); settings: 320 g/ha, 3 weeks after application
# Summary of the method: as §3
# Stellaria media [11] = test: Test Example 5: herbicidal effect by foliage application, plastic box (symbol P); settings: 320 g/ha, 3 weeks after application
# Summary of the method: as §3
# rice plant = test: Test Example 5: effect on crop by foliage application, plastic box (symbol b); settings: 320 g/ha, 3 weeks after application
# Summary of the method: (§4)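 Greenhouse culture at 25° C. to 30° C. followed spot-like sowing into sterilized diluvial soil, with seed covered by roughly 1.5 cm of soil.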
# beet = test: Test Example 5: effect on crop by foliage application, plastic box (symbol f); settings: 320 g/ha, 3 weeks after application
# Summary of the method: as §4
# rapeseed = test: Test Example 5: effect on crop by foliage application, plastic box (symbol g); settings: 320 g/ha, 3 weeks after application
# Summary of the method: as §4
smiles,measurement,setting,value
CON=C(C)CC1CC(O)=C(c2c(C)cc(-c3ccc(OC(F)(F)F)cc3)cc2C)C1=O (mixture of isomers) [6-056],"Effect grade on crop, a: transplanted rice plant",transplanted rice plant,0 (Herbicidal ratio of 5% or lower (almost no effect))
same,"herbicidal effect on H (Echinochloa crus-galli var. crus-galli), grade 0-5",[1],4 (Herbicidal ratio of 70% or higher and lower than 90%)
same,"herbicidal effect on D (Leptochloa chinensis), grade 0-5",Leptochloa chinensis,5 (Herbicidal ratio of 90% or more (almost completely withered))
same,"effect on crop b (directly sowed rice plant), grade 0-5",[2],5 (Herbicidal ratio of 90% or more (almost completely withered))
same,"F: Digitaria ciliaris, herbicidal effect grade",Digitaria ciliaris,0 (Herbicidal ratio of 5% or lower (almost no effect))
same,"G: Setaria viridis, herbicidal effect grade",Setaria viridis [3],2 (Herbicidal ratio of 20% or higher and lower than 40%)
same,"K: Lolium multiflorum Lam., herbicidal effect grade",Lolium multiflorum Lam.,0 (Herbicidal ratio of 5% or lower (almost no effect))
same,"L: Apera spica-venti, herbicidal effect grade",Apera spica-venti [4],0 (Herbicidal ratio of 5% or lower (almost no effect))
same,"M: Abutilon theophrasti, herbicidal effect grade",Abutilon theophrasti [5],0 (Herbicidal ratio of 5% or lower (almost no effect))
same,"N: Amaranthus retroflexus, herbicidal effect grade",Amaranthus retroflexus,0 (Herbicidal ratio of 5% or lower (almost no effect))
same,"P: Stellaria media, herbicidal effect grade",Stellaria media [6],0 (Herbicidal ratio of 5% or lower (almost no effect))
same,"Q: Galium spurium, herbicidal effect grade",Galium spurium,0 (Herbicidal ratio of 5% or lower (almost no effect))
same,"R: Veronica persica, herbicidal effect grade",Veronica persica,0 (Herbicidal ratio of 5% or lower (almost no effect))
same,"G: Setaria viridis, herbicidal effect (criteria of Test Example 1)",Setaria viridis [7],5 (Herbicidal ratio of 90% or more (almost completely withered))
same,"H: Echinochloa crus-galli var. crus-galli, herbicidal effect (criteria of Test Example 1)",[8],4 (Herbicidal ratio of 70% or higher and lower than 90%)
same,"I: Avena fatua, herbicidal effect (criteria of Test Example 1)",Avena fatua,3 (Herbicidal ratio of 40% or higher and lower than 70%)
same,"L: Apera spica-venti, herbicidal effect (criteria of Test Example 1)",Apera spica-venti [9],3 (Herbicidal ratio of 40% or higher and lower than 70%)
same,"M: Abutilon theophrasti, herbicidal effect (criteria of Test Example 1)",Abutilon theophrasti [10],0 (Herbicidal ratio of 5% or lower (almost no effect))
same,"P: Stellaria media, herbicidal effect (criteria of Test Example 1)",Stellaria media [11],0 (Herbicidal ratio of 5% or lower (almost no effect))
same,"b: directly sowed rice plant, effect on crop (criteria of Test Example 1)",rice plant,2 (Herbicidal ratio of 20% or higher and lower than 40%)
same,"f: beet, effect on crop (criteria of Test Example 1)",beet,0 (Herbicidal ratio of 5% or lower (almost no effect))
same,"g: rapeseed, effect on crop (criteria of Test Example 1)",rapeseed,3 (Herbicidal ratio of 40% or higher and lower than 70%)
CON=C(C)C(C(C)=NOC)C1CC(O)=C(c2c(C)cc(C)cc2C)C1=O (stereo not drawn) [1-021],"Effect grade on crop, a: transplanted rice plant",transplanted rice plant,0 (Herbicidal ratio of 5% or lower (almost no effect))
same,"herbicidal effect on H (Echinochloa crus-galli var. crus-galli), grade 0-5",[1],2 (Herbicidal ratio of 20% or higher and lower than 40%)
same,"herbicidal effect on D (Leptochloa chinensis), grade 0-5",Leptochloa chinensis,0 (Herbicidal ratio of 5% or lower (almost no effect))
same,"effect on crop b (directly sowed rice plant), grade 0-5",[2],0 (Herbicidal ratio of 5% or lower (almost no effect))
same,F (Digitaria ciliaris) herbicidal effect grade,Digitaria ciliaris,0 (Herbicidal ratio of 5% or lower (almost no effect))
same,G (Setaria viridis) herbicidal effect grade,Setaria viridis [3],0 (Herbicidal ratio of 5% or lower (almost no effect))
same,K (Lolium multiflorum Lam.) herbicidal effect grade,Lolium multiflorum Lam.,2 (Herbicidal ratio of 20% or higher and lower than 40%)
same,L (Apera spica-venti) herbicidal effect grade,Apera spica-venti [4],0 (Herbicidal ratio of 5% or lower (almost no effect))
same,M (Abutilon theophrasti) herbicidal effect grade,Abutilon theophrasti [5],0 (Herbicidal ratio of 5% or lower (almost no effect))
same,N (Amaranthus retroflexus) herbicidal effect grade,Amaranthus retroflexus,0 (Herbicidal ratio of 5% or lower (almost no effect))
same,P (Stellaria media) herbicidal effect grade,Stellaria media [6],0 (Herbicidal ratio of 5% or lower (almost no effect))
same,Q (Galium spurium) herbicidal effect grade,Galium spurium,0 (Herbicidal ratio of 5% or lower (almost no effect))
same,"G: Setaria viridis, herbicidal effect grade",Setaria viridis [7],1 (Herbicidal ratio of 5% or higher and lower than 20%)
same,"H: Echinochloa crus-galli var. crus-galli, herbicidal effect grade",[8],3 (Herbicidal ratio of 40% or higher and lower than 70%)
same,"I: Avena fatua, herbicidal effect grade",Avena fatua,0 (Herbicidal ratio of 5% or lower (almost no effect))
same,"L: Apera spica-venti, herbicidal effect grade",Apera spica-venti [9],4 (Herbicidal ratio of 70% or higher and lower than 90%)
same,"M: Abutilon theophrasti, herbicidal effect grade",Abutilon theophrasti [10],0 (Herbicidal ratio of 5% or lower (almost no effect))
same,"b: directly sowed rice plant, effect on crop grade",rice plant,3 (Herbicidal ratio of 40% or higher and lower than 70%)
same,"f: beet, effect on crop grade",beet,0 (Herbicidal ratio of 5% or lower (almost no effect))
same,"g: rapeseed, effect on crop grade",rapeseed,2 (Herbicidal ratio of 20% or higher and lower than 40%)
CON=C(C)CC1CC(OC(=O)N2CCOCC2)=C(c2c(C)cc(-c3ccc(F)c(Cl)c3)cc2C)C1=O (stereo not drawn) [6-093],"Effect grade on crop, a: transplanted rice plant",transplanted rice plant,5 (Herbicidal ratio of 90% or more (almost completely withered))
same,"herbicidal effect on H (Echinochloa crus-galli var. crus-galli), grade 0-5",[1],5 (Herbicidal ratio of 90% or more (almost completely withered))
same,"herbicidal effect on D (Leptochloa chinensis), grade 0-5",Leptochloa chinensis,5 (Herbicidal ratio of 90% or more (almost completely withered))
same,"effect on crop b (directly sowed rice plant), grade 0-5",[2],5 (Herbicidal ratio of 90% or more (almost completely withered))
same,"Herbicidal effect grade, F: Digitaria ciliaris",Digitaria ciliaris,5 (Herbicidal ratio of 90% or more (almost completely withered))
same,"Herbicidal effect grade, G: Setaria viridis",Setaria viridis [3],5 (Herbicidal ratio of 90% or more (almost completely withered))
same,"Herbicidal effect grade, K: Lolium multiflorum Lam.",Lolium multiflorum Lam.,1 (Herbicidal ratio of 5% or higher and lower than 20%)
same,"Herbicidal effect grade, M: Abutilon theophrasti",Abutilon theophrasti [5],0 (Herbicidal ratio of 5% or lower (almost no effect))
same,"Herbicidal effect grade, N: Amaranthus retroflexus",Amaranthus retroflexus,0 (Herbicidal ratio of 5% or lower (almost no effect))
same,"Herbicidal effect grade, P: Stellaria media",Stellaria media [6],5 (Herbicidal ratio of 90% or more (almost completely withered))
same,"Herbicidal effect grade, Q: Galium spurium",Galium spurium,0 (Herbicidal ratio of 5% or lower (almost no effect))
same,"Herbicidal effect grade, R: Veronica persica",Veronica persica,4 (Herbicidal ratio of 70% or higher and lower than 90%)
same,"G: Setaria viridis, herbicidal effect (criteria of Test Example 1)",Setaria viridis [7],5 (Herbicidal ratio of 90% or more (almost completely withered))
same,"H: Echinochloa crus-galli var. crus-galli, herbicidal effect (criteria of Test Example 1)",[8],5 (Herbicidal ratio of 90% or more (almost completely withered))
same,"I: Avena fatua, herbicidal effect (criteria of Test Example 1)",Avena fatua,5 (Herbicidal ratio of 90% or more (almost completely withered))
same,"L: Apera spica-venti, herbicidal effect (criteria of Test Example 1)",Apera spica-venti [9],5 (Herbicidal ratio of 90% or more (almost completely withered))
same,"M: Abutilon theophrasti, herbicidal effect (criteria of Test Example 1)",Abutilon theophrasti [10],3 (Herbicidal ratio of 40% or higher and lower than 70%)
same,"P: Stellaria media, herbicidal effect (criteria of Test Example 1)",Stellaria media [11],4 (Herbicidal ratio of 70% or higher and lower than 90%)
same,"b: directly sowed rice plant, effect on crop (criteria of Test Example 1)",rice plant,4 (Herbicidal ratio of 70% or higher and lower than 90%)
same,"f: beet, effect on crop (criteria of Test Example 1)",beet,3 (Herbicidal ratio of 40% or higher and lower than 70%)
same,"g: rapeseed, effect on crop (criteria of Test Example 1)",rapeseed,4 (Herbicidal ratio of 70% or higher and lower than 90%)

# — patent US11000033B2, “Ketone or oxime compound, and herbicide” (NISSAN CHEMICAL CORPORATION, priority 2014, dated 2021)
